{
  "source": "patent US8871681B2",
  "about": "“Herbicidal compositions comprising 4-amino-3-chloro-5-fluoro-6-(4-chloro-2-fluoro-3-methoxyphenyl) pyridine-2-carboxylic acid or a derivative thereof and certain sulfonylureas” (Dow AgroSciences LLC, priority 2012, dated 2014)",
  "key": {"[1]": {"tested_on": "ECHOR (Echinochloa oryzoides, early watergrass)", "assay": "In-water applied weed control, transplanted paddy rice, greenhouse (Example II)", "format": "in vivo, Echinochloa oryzoides (Ard.) Fritsch", "experimental": "(§1) Weed seeds or nutlets of the desired test plant species were planted in puddled soil (mud) prepared by mixing a shredded, non-sterilized mineral soil (50.5 percent silt, 25.5 percent clay, and 24 percent sand, with a pH of about 7.6 and an organic matter content of about 2.9 percent) and water at a 1:1 volumetric ratio. The prepared mud was dispensed in 365 mL aliquots into 16-ounce (oz.) non-perforated plastic pots with a surface area of 86.59 square centimeters (cm^2) leaving a headspace of 3 centimeters (cm) in each pot. Rice seeds were planted in Sun Gro MetroMix® 306 planting mixture, which typically has a pH of 6.0 to 6.8 and an organic matter content of about 30 percent, in plastic plug trays. Seedlings at the second or third leaf stage of growth were transplanted into 860 mL of mud contained in 32-oz. non-perforated plastic pots with a surface area of 86.59 cm^2 4 days prior to herbicide application. The paddy was created by filling the headspace of the pots with 2.5 to 3 cm of water. When required to ensure good germination and healthy plants, a fungicide treatment and/or other chemical or physical treatment was applied. The plants were grown for 4-22 days in a greenhouse with an approximate 14 h photoperiod which was maintained at about 29′C during the day and 26° C. during the night. Nutrients were added as Osmocote® (19:6:12, N:P:K+minor nutrients) at 2 g per 16-oz. pot and 4 g per 32-oz. pot. Water was added on a regular basis to maintain the paddy flood, and supplemental lighting was provided with overhead metal halide 1000-Watt lamps as necessary. The plants were employed for testing when they reached the first through fourth true leaf stage.\n(§2) Treatments consisted of the acid or esters of 4-amino-3-chloro-5-fluoro-6-(4-chloro-2-fluoro-3-methoxy-phenyl)pyridine-2-carboxylic acid (compound A) each formulated as an SC and various herbicidal components alone and in combination. Forms of compound A were applied on an acid equivalent basis.\n(§3) Other herbicidal components were applied on an active ingredient basis and included acetolactate synthase (ALS)-inhibiting herbicides (sulfonylurea chemical class), azimsulfuron formulated as Gulliver®, bensulfuron-methyl formulated as Londax® 60DF, cyclosulfamuron (technical grade materail), ethoxysulfuron formulated as Sunrice® 15 WDG, flucetosulfuron formulated as Sukedachi® 1KG G, imazosulfuron formulated as Brazzos®, metsulfuron-methyl formulated as Lorate®, nicosulfuron formulated as Accent®, orthosulfamuron formulated as Strada® WG, propyrisulfuron formulated as Zeta One®, and rimsulfuron formulated as Matrix® WG.\n(§4) Treatment requirements for each compound or herbicidal component were calculated based upon the rates being tested, the concentration of active ingredient or acid equivalent in the formulation, an application volume of 2 mL per component per pot, and an application area of 86.59 cm^2 per pot.\n(§5) For formulated compounds, a measured amount was placed in an individual 100 or 200 mL glass vial and was dissolved in a volume of 1.25% (v/v) Agri-Dex® crop oil concentrate to obtain application solutions.\n(§6) For technical grade compounds, a weighed amount was placed in an individual 100 to 200 mL glass vial and was dissolved in a volume of acetone to obtain concentrated stock solutions. […] The concentrated stock solutions obtained were diluted with an equivalent volume of an aqueous mixture containing 2.5% (v/v) crop oil concentrate so that the final application solutions contained 1.25% (v/v) crop oil concentrate.\n(§7) Applications were made by injecting with a pipetter appropriate amounts of the application solutions, individually and sequentially, into the aqueous layer of the paddy. Control plants were treated in the same manner with the solvent blank. Applications were made so that all treated plant material received the same concentrations of acetone and crop oil concentrate. […]"}, "[2]": {"tested_on": "BRAPP (Brachiaria platyphylla, broadleaf signalgrass)", "assay": "Postemergence foliar-applied weed control, direct seeded rice, greenhouse (Example I)", "format": "in vivo, Brachiaria platyphylla (Griseb.) Nash", "conditions": "Urochloa platyphylla, post-emergence, 504 h, read-out: Visual Weed Control (%) Obs, 21 DAA", "source_text": "(§8) Seeds or nutlets of the desired test plant species were planted in a soil matrix prepared by mixing a loam or sandy loam soil (e.g., 28.6 percent silt, 18.8 percent clay, and 52.6 percent sand, with a pH of about 5.8 and an organic matter content of about 1.8 percent) and calcareous grit in an 80 to 20 ratio. The soil matrix was contained in plastic pots with a volume of 1 quart and a surface area of 83.6 square centimeters (cm^2). When required to ensure good germination and healthy plants, a fungicide treatment and/or other chemical or physical treatment was applied. The plants were grown for 8-22 days in a greenhouse with an approximate 14 h photoperiod which was maintained at about 29° C. during the day and 26° C. during the night. Nutrients (Peters Excel® 15-5-15 5-Ca 2-Mg and iron chelate) were applied in the irrigation solution as needed and water was added on a regular basis. Supplemental lighting was provided with overhead metal halide 1000-Watt lamps as necessary. The plants were employed for testing when they reached the first through fourth true leaf stage.\n(§9) Treatments consisted of the acid or esters of 4-amino-3-chloro-5-fluoro-6-(4-chloro-2-fluoro-3-methoxy-phenyl)pyridine-2-carboxylic acid (Compound A), each formulated as an SC, and various herbicidal components alone and in combination. Forms of compound A were applied on an acid equivalent basis.\n(§10) Other herbicidal components were applied on an active ingredient basis and included acetolactate synthase (ALS)-inhibiting herbicides (sulfonylurea chemical class) azimsulfuron formulated as Gulliver®, bensulfuron-methyl formulated as Londax® 60DF, cyclosulfamuron (technical material), ethoxysulfuron formulated as Sunrice® 15 WDG, flazasulfuron formulated as Katana®, flucetosulfuron formulated as Sukedachi® 1KG G, foramsulfuron formulated as Option®, imazosulfuron formulated as Brazzos® WG, iodosulfuron-methyl-sodium formulated as Hussar®, metsulfuron-methyl formulated as Lorate®, nicosulfuron formulated as Accent®, orthosulfamuron formulated as Strada® WG, primisulfuron-methyl (technical material), propyrisulfuron formulated as Zeta One®, rimsulfuron formulated as Matrix® WG, sulfometuron-methyl formulated as Oust®, and trifloxysulfuron-sodium formulated as Monument® 75WG.\n(§11) Treatment requirements were calculated based upon the rates being tested, the concentration of active ingredient or acid equivalent in the formulation, and a 12 mL application volume at a rate of 187 L/ha.\n(§12) For treatments comprised of formulated compounds, measured amounts of compounds were placed individually in 25 mL glass vials and diluted in a volume of 1.25% (v/v) Agri-Dex® crop oil concentrated to obtain 12× stock solutions. […] Application solutions were prepared by adding an appropriate amount of each stock solution (e.g., 1 mL) and diluted to the appropriate final concentrations with the addition of 10 mL of an aqueous mixture of 1.25% (v/v) crop oil concentrate so that the final spray solutions contained 1.25+/−0.05% (v/v) Agrcrop oil concentrate.\n(§13) For treatments comprised of formulated and technical compounds, weighed amounts of the technical materials were placed individually in 25 mL glass vials and dissolved in a volume of 97:3 v/v acetone/DMSO to obtain 12× stock solutions, and measured amounts of the formulated compounds were placed individually in 25 mL glass vials and diluted in a volume of 1.25% (v/v) crop oil concentrate to obtain 12× stock solutions. […] Application solutions were prepared by adding an appropriate amount of each stock solution (e.g., 1 mL) and diluted to the appropriate final concentrations with the addition of an appropriate amount of an aqueous mixture of 1.5% (v/v) crop oil concentrate so that the final spray solutions contained 1.25% (v/v) crop oil concentrate. […]"}, "[3]": {"tested_on": "SCPMA (Bolboschoenus maritimus or Schoenoplectus maritimus, sea clubrush)", "assay": "In-water applied weed control, transplanted paddy rice, greenhouse (Example II)", "format": "in vivo, Bolboschoenus maritimus (L.) Palla", "experimental": "as §1, §2, §3, §4, §5, §6, §7"}, "[4]": {"tested_on": "ECHCG (Echinochloa crusgalli, barnyardgrass)", "assay": "Postemergence foliar-applied weed control, direct seeded rice, greenhouse (Example I)", "format": "in vivo, Echinochloa crusgalli (L.) Beauv.", "conditions": "27 DAA", "source_text": "as §8, §9, §10, §11, §12, §13"}, "[5]": {"tested_on": "VERPE (Veronica persica, bird's-eye speedwell)", "assay": "Post-emergence foliar-applied weed control in cereal crops, greenhouse (Example III)", "format": "in vivo, Veronica persica Poir.", "experimental": "(§14) Seeds of the desired test plant species were planted in Sun Gro MetroMix® 306 planting mixture, which typically has a pH of 6.0 to 6.8 and an organic matter content of about 30 percent, in plastic pots with a surface area of 103.2 square centimeters (cm^2). When required to ensure good germination and healthy plants, a fungicide treatment and/or other chemical or physical treatment was applied. The plants were grown for 7-36 days in a greenhouse with an approximate 14 hour photoperiod which was maintained at about 18° C. during the day and 17° C. during the night. Nutrients and water were added on a regular basis and supplemental lighting was provided with overhead metal halide 1000-Watt lamps as necessary. The plants were employed for testing when they reached the second or third true leaf stage.\n(§15) Treatments consisted of the benzyl ester of 4-amino-3-chloro-5-fluoro-6-(4-chloro-2-fluoro-3-methoxy-phenyl)pyridine-2-carboxylic acid (Compound A), formulated as an SC (suspension concentrate), and a second cereal herbicide alone and in combination.\n(§16) Measured aliquot of benzyl ester of 4-amino-3-chloro-5-fluoro-6-(4-chloro-2-fluoro-3-methoxy-phenyl)pyridine-2-carboxylic acid (Compound A) was placed in 25 milliliter (mL) glass vials and diluted in a volume of 1.25% (v/v) Agri-dex crop oil concentrated to obtain stock solutions. Compound requirements are based upon a 12 mL application volume at a rate of 187 liters per hectare (L/ha). Spray solutions of the second cereal herbicide and experimental compound mixtures were prepared by adding the stock solutions to the appropriate amount of dilution solution to form 12 mL spray solution with active ingredients in two- and three-way combinations. Formulated compounds were applied to the plant material with an overhead Mandel track sprayer equipped with an 8002E nozzle calibrated to deliver 187 L/ha over an application area of 0.503 square meters (m^2) at a spray height of 18 inches (46 cm) above average plant canopy. Control plants were sprayed in the same manner with the solvent blank.\n(§17) The treated plants and control plants were placed in a greenhouse as described above and watered by sub-irrigation to prevent wash-off of the test compounds. After 20-22 days, the condition of the test plants as compared with that of the control plants was determined visually and scored on a scale of 0 to 100 percent where 0 corresponds to no injury and 100 corresponds to complete kill.\n(§18) Colby's equation was used to determine the herbicidal effects expected from the mixtures (Colby, S. R. 1967. Calculation of the synergistic and antagonistic response of herbicide combinations. Weeds 15:20-22.).\n(§19) The following equation was used to calculate the expected activity of mixtures containing two active ingredients, A and B: Expected=A+B−(A×B/100)"}, "[6]": {"tested_on": "CIRAR (Cirsium arvense, Canada thistle)", "assay": "Post-emergence foliar-applied weed control in cereal crops, greenhouse (Example III)", "format": "in vivo, Cirsium arvense (L.) Scop.", "conditions": "foliar-applied, after 20-22 days", "experimental": "as §14, §15, §16, §17, §18, §19"}, "[7]": {"tested_on": "MATCH (Chamomilla chamomilla, scented mayweed)", "assay": "Post-emergence foliar-applied weed control in cereal crops, greenhouse (Example III)", "format": "in vivo, Chamomilla chamomilla (L.) Rydb.", "conditions": "Table 55, after 20-22 days, 3 gai/ha alone", "experimental": "as §14, §15, §16, §17, §18, §19"}},
  "data": [
    {"molecule": "CCCCOC(=O)c1nc(-c2ccc(Cl)c(OC)c2F)c(F)c(N)c1Cl", "note": "[Compound A n-Butyl Ester]", "values": [
      {"measurement": "Visual Weed Control (%) - 20 DAA ECHOR Obs", "setting": "[1]; Table 30, 35 gae/ha alone", "value": 28, "unit": "%"},
      {"measurement": "Visual Weed Control (%) - 20 DAA ECHOR Obs", "setting": "[1]; Table 30, 70 gae/ha alone", "value": 45, "unit": "%"},
      {"measurement": "pest or weed control at 4.38 g/ha", "setting": "[2]; 4.38 gae/ha", "value": 0, "unit": "%"},
      {"measurement": "pest or weed control at 8.75 g/ha", "setting": "[2]; 8.75 gae/ha", "value": 40, "unit": "%"},
      {"measurement": "Visual Weed Control (%) - 20 DAA SCPMA Obs", "setting": "[3]; Table 40, 35 gae/ha alone", "value": 0, "unit": "%"},
      {"measurement": "Visual Weed Control (%) - 20 DAA SCPMA Obs", "setting": "[3]; Table 40, 70 gae/ha alone", "value": 0, "unit": "%"},
      {"measurement": "Visual Weed Control (%) Obs", "setting": "[4]; 4.38 gae/ha", "value": 0, "unit": "%"},
      {"measurement": "Visual Weed Control (%) Obs", "setting": "[4]; 8.75 gae/ha", "value": 0, "unit": "%"}
    ]},
    {"molecule": "COC(=O)c1ccc(C(F)(F)F)nc1S(=O)(=O)NC(=O)Nc1nc(OC)cc(OC)n1", "note": "[Flupyrsulfuron-methyl sodium]", "values": [
      {"measurement": "Weed Control VERPE Obs", "setting": "[5]; Table 53, after 20-22 days, 5 gai/ha alone", "value": 0, "unit": "%"},
      {"measurement": "pest or weed control at 5 g/ha", "setting": "[6]; Cirsium arvense, post-emergence, Table 53, 5 gai/ha alone, read-out: Weed Control CIRAR Obs", "value": 75, "unit": "%"}
    ]},
    {"molecule": "COC(=O)c1ccc(CNS(C)(=O)=O)cc1S(=O)(=O)NC(=O)Nc1nc(OC)cc(OC)n1", "note": "[Mesosulfuron-methyl]", "values": [
      {"measurement": "Weed Control MATCH Obs", "setting": "[7]", "value": 40, "unit": "%"},
      {"measurement": "Weed Control VERPE Obs", "setting": "[5]; Table 55, after 20-22 days, 3 gai/ha alone", "value": 5, "unit": "%"},
      {"measurement": "Weed Control CIRAR Obs", "setting": "[6]; Table 55, 3 gai/ha alone", "value": 78, "unit": "%"}
    ]}
  ]
}
